Entries after “also recorded” stand apart in the source; their conditions may differ. Read-outs that look alike come from different tables or passages of the source.
Experiments:
human serum albumin [1] = target: T1, human serum albumin (Homo sapiens, UniProt P02768); assay: Binding to human serum albumin, fluorescence quenching titration; conditions: 25° C., pH 7.4, read-out: Dissociation constant (Kd) for binding to human serum albumin
Protocol: Table I below lists the dissociation constants (Kds) for binding of compounds 1-6 to human serum albumin. The Kd for gossypol was determined by multiple methods as reported in FEBS Lett. 157:28-30, 1983. The Kds for compounds 2-6 were determined by fluorescence quenching titrations.
These experiments were carried out at 25° C. in 2 mL volumes of 0.2M potassium phosphate buffer (pH 7.4) containing 0.1M sodium chloride. Aliquots of a 1 mM stock solution of test compound in DMSO were added to a 10 μM solution of human serum albumin in the buffer. Fluorescence was measured with a Perkin Elmer model LS 50 luminescence spectrometer. The Kds were determined by plotting the reciprocal of free ligand concentration versus the reciprocal of fractional quenching. This plot provides -1/Kd as the x-intercept. Details of the calculations employed are set forth in J. Pharm. Sci. 77:237-240 (1988).

HT46c (HeLaT4+) cells = assay: Cytotoxicity: changes in cell morphology or loss of monolayer adherence in HT46c cells; format: cell-based; conditions: for cytotoxicity (in words): HT46c cells, compared with BDGA and/or GIL where stated; for toxicity (in words): 5.0 μM
[2] = as above; format: cell-based; conditions: human; for MCC at 72 h: HT46c cells, 3 days, lowest concentration with detectable morphology change or loss of monolayer adherence, read-out: threshold cytotoxicity
[3] = tested on: H9/HIV-IIIB strain of the HIV-1 virus; assay: Inhibition of HIV replication, focal immunoassay (foci reduction) in HT46c cells; format: cell-based; conditions: for anti-HIV activity (in words): in vitro, compared with BDGA and/or GIL where stated; for anti-HIV activity (in words) / EC50: H9/HIV-IIIB in HT46c cells; for reduction in foci (in words): 5 μM, GIL and BDGA compared; for EC50: Human immunodeficiency virus 1, 72 h, 3 days at 37° C.
Protocol: 1,1'-bisdeoxygossypol (BDG), 1,1'-bisdeoxygossylic acid (BDGA), 8-deoxyhemigossypol (DHG) and 8-deoxyhemigossylic acid (DHGA) were synthesized and tested for their ability to inhibit the replication of HIV in vitro. The EC50 for BDGA was <1 μM and its threshold cytotoxicity was approximately 20 μM. […] Like BDGA, the Ec50 for GIL was <1 μM. […] BDG, on the other hand, was ineffective at 1 μM and destroyed >80% of the cell monolayer at 5 μM.
The anti-HIV assay used was based on a published procedure (J. Virol. 62:3779-3788, 1988) using HT46c (HeLaT4+) cells as host cells for the H9/HIV-IIIB strain of the HIV-1 virus. The cells were seeded into 6-well plates, 5×10^4 cells/well, in RPMI 1640 with 10% FBS and allowed to attach overnight. After treatment of the wells with DEAE-dextran, stock virus was added at a concentration that produces 100-200 foci/well on day 3 in positive control wells. Test compounds were added, and plates incubated for 3 days at 37° C., 5% CO2. Monolayers were fixed with methanol and wells analyzed with a focal immunoassay (FIA). The primary reagent used in the FIA was a polyclonal antibody preparation of sera from AIDS patients. The secondary reagent was a goat anti-human IgG antibody tagged with horseradish peroxidase. The substrate was 3-amino-9-ethylcarbazole in sodium acetate buffer with hydrogen peroxide. Each compound was tested at concentrations of 0.01, 0.1, 1.0, 5.0 and 20 μM. GIL was tested as a standard for comparison.

[4] = previous or background findings; GIL compared with gossypol; cited from earlier work
human serum albumin [5] = target: T1, human serum albumin; conditions: gossypol, determined by multiple methods as reported in FEBS Lett. 157:28-30, 1983; read-out: Dissociation constant (Kd) for binding to human serum albumin; cited from earlier work
HIV = conditions: previously found, in vitro, similar assays; cited from earlier work

T1 sequence (P02768 25-609): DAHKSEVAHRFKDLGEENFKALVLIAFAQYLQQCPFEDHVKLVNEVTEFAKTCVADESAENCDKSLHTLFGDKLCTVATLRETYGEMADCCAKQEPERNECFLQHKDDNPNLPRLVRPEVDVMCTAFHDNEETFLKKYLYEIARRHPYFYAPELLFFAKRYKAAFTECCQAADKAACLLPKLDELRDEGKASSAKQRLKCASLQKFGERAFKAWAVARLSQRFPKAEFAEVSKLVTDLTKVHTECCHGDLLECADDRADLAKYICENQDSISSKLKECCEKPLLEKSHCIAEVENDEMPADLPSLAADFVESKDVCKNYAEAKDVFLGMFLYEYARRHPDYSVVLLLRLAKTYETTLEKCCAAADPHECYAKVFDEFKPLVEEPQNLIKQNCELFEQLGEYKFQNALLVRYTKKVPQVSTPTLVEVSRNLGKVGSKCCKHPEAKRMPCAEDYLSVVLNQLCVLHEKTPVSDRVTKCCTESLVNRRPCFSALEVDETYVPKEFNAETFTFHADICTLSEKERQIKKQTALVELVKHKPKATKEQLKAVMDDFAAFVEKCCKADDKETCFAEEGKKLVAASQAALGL

SMILES	Kd (human serum albumin [1]) [µM]	cytotoxicity (in words) (HT46c (HeLaT4+) cells)	anti-HIV activity (in words) [3]	toxicity (in words) (HT46c (HeLaT4+) cells)	MCC at 72 h [2] [µM]	reduction in foci (in words) [3]	EC50 [3] [µM]	cytotoxicity (in words), previous findings [4]	other results
Cc1cc2c(C(C)C)c(O)c(O)c(C=O)c2cc1-c1cc2c(C=O)c(O)c(O)c(C(C)C)c2cc1C [BDG, 6,6',7,7'-Tetrahydroxy-3,3'-dimethyl-5,5'-bis(1-methylethyl) [2,2'-binaphthalene]-8,8'-dicarboxaldehyde]	1.2	much more cytotoxic than BDGA	less effective against HIV	–	–	–	–	–	cytotoxicity at 5 µM ([2]; ht46c cells, 5 μM, read-out: cell monolayer destroyed): > 80%; anti-HIV effect (in words) ([3]; 1 μM): ineffective
Cc1ccc2c(C(=O)O)c(O)c(O)c(C(C)C)c2c1 [DHGA, 2,3-dihydroxy-6-methyl-4-(1-methylethyl)-1-naphthoic Acid]	5.28	very low cytotoxicity	ineffective against HIV	–	–	–	–	–	effect on cell morphology (in words) (HT46c (HeLaT4+) cells; even at 20 μM): no observable effect on viral replication or cell morphology; effect on viral replication (in words) ([3]; even at 20 μM): no observable effect on viral replication
Cc1cc2c(C(C)C)c(O)c(O)c(C(=O)O)c2cc1-c1cc2c(C(=O)O)c(O)c(O)c(C(C)C)c2cc1C [BDGA, 6,6',7,7'-Tetrahydroxy-3,3'-dimethyl-5,5'-bis(1-methylethyl) [2,2'-binaphthalene]-8,8'-dicarboxylic Acid]	1.5	–	approximately as effective as GIL	No toxicity was noted	~20	same reduction in foci	< 1	–	monolayer destruction (in words) (HT46c (HeLaT4+) cells; 20 μM): Some signs of monolayer destruction
Cc1cc2c(C(C)C)c(O)c(O)c(C=O)c2c(O)c1-c1c(C)cc2c(C(C)C)c(O)c(O)c(C=O)c2c1O [gossypol]	–	–	–	–	–	–	–	significantly cytotoxic at effective dosage levels	Kd (human serum albumin [5]): 0.09 µM
Cc1cc2c(C(C)C)c(O)c(O)c3c2c(c1-c1c(C)cc2c(C(C)C)c(O)c(O)c4c2c1OC4=N)OC3=N [GIL, reference compound]	3	–	–	No toxicity was noted	–	same reduction in foci	< 1	less cytotoxic than gossypol	anti-HIV activity relative to gossypol (in words) (HIV): more active; also recorded: more effective than gossypol
Cc1ccc2c(C=O)c(O)c(O)c(C(C)C)c2c1 [DHG, 2,3-dihydroxy-6-methyl-4-(1-methylethyl)-1-naphthaldehyde]	0.66	more cytotoxic	some anti-HIV activity; also recorded: less active	–	5	–	–	–	–

— patent publication US5780675A, “Deoxygossylic compounds” (The University of New Mexico, priority 1995, dated 1998)
